From US9598686B2, “Use of Galerina marginata genes and proteins for peptide production” (Board of Trustees of Michigan State University, priority 2007, dated 2017)
*1 amine or outer side, *2 acyl side, *3 side chain or, on linkers, in order; H or OH if unused. Where a SMILES comes first, the peptide text is derived from it. Bridges are numbered along the chain shown (N, C = ends). [ ]: non-standard residue; d: D form. Trp(2-SH) = 2-mercapto-L-tryptophan, O=C([C@H](Cc1c(S[*:3])[nH]c2ccccc12)N[*:1])[*:2]; Trp(2-yl) = O=C([C@H](Cc1c([*:3])[nH]c2ccccc12)N[*:1])[*:2]; Leu(4R-OH,5-OH) = C[C@](O)(CO)C[C@H](N)C(=O)O; Leu(4,5-diOH) = 4,5-dihydroxy-L-leucine; cisHyp = O=C(O)[C@@H]1C[C@H](O)CN1

What was measured:
[1] = parenteral: inhalation, intravenous or intramuscular injection; cited from earlier work
[2] = oral; cited from earlier work
[3] = tested on: POPB (prolyl oligopeptidase) purified from Conocybe albipes; assay: cleavage of synthetic model toxin propeptides by purified POP, reverse phase HPLC and MS; type: biochemical; details: products confirmed by MS/MS
Experimental: The responsible enzyme was purified. Specifically, Conocybe mushrooms were freeze-dried, ground in buffer, and the extracts concentrated by ammonium sulfate precipitation. After desalting, the proteins were fractionated by anion exchange high-performance liquid chromatography (or high pressure liquid chromatography, HPLC).
Fractions containing peptides were assayed using Z-Gly-Pro-pNA and the model phallacidin substrate. Reaction products were separated by reverse phase HPLC (FIG. 20). In some experiments the HPLC eluant was analyzed by MS, while in other cases the peaks of UV absorption were collected and analyzed by MS in the inventors lab and the central LC/MS facility, in particular for long HPLC run times. […] PepSeq within the MassLynx program was used to determine peptide sequences. The peptides eluting from HPLC were monitored at 280 nm.
Confirmation of reaction product structures was accomplished by MS/MS.

[4] = tested on: human; details: cited from earlier work

Molecule: C[C@@H]1NC(=O)[C@H](C[C@@](C)(O)CO)NC(=O)[C@@H]2Cc3c([nH]c4ccccc34)SC[C@H](NC(=O)[C@@H]([C@H](C)O)NC1=O)C(=O)N1C[C@@H](O)C[C@H]1C(=O)N[C@@H](C)C(=O)N2 [phalloidin, cyclic (L-alanyl-D-threonyl-L-cysteinyl-cis-4-hydroxy-L-prolyl-L-alanyl-2-mercapto-L-tryptophyl-4,5-dihydroxy-L-leucyl), cyclic (3,6)-sulfide] (cyclo(A[dT]C[cisHyp]A[Trp(2-yl)][Leu(4R-OH,5-OH)]); thioether 3-6)
- toxicity when administered parenterally [1]: poisonous
- absorption by the mammalian digestive tract [2]: do not appear to be absorbed

Molecule: ATRLPAWLVDCPCVGDD [synthetic phallacidin precursor]
- cleavage by purified POP at flanking Pro residues [3]: cut

Molecule: MSDINATRLPAWLATCPCAGDD [synthetic phalloidin peptide, synthesized model peptide mimicking the phalloidin proprotein]
- cleavage by purified POP at flanking Pro residues [3]: cuts

Molecule: ATRLPIWGIGCNPCVGDD [synthetic amanitin precursor]
- cleavage by purified POP at flanking Pro residues [3]: cut

Molecule: cyclic (L-asparaginyl-4-hydroxy-L-prolyl-(R)-4,5-dihydroxy-L-isoleucyl-6-hydroxy-2-mercapto-L-tryptophylglycyl-L-isoleucylglycyl-L-cysteinyl), cyclic (4-8)-sulfide, (R)—S-oxide [α-amanitin]
- fatal dose ([4]; fatal for at least 50% of people weighing approximately 100-110 kgs, amount one mature mushroom can contain): 10 to 12 mg
- human LD50 ([4]; human): approximately 0.1 mg/kg

Molecule: cyclic (L-alanyl-2-mercapto-L-tryptophyl-4,5-dihydroxy-L-leucyl-L-valyl-er-ythro-3-hydroxy-D-alpha-aspartyl-cysteinyl-cis-4-hydroxy-L-prolyl)cyclic (2-6)-sulfide (cyclo(A[Trp(2-SH)][Leu(4,5-diOH)]VDC[cisHyp]); thioether 2-6; not fully specified (residue 5)) [phallacidin]
- toxicity when administered parenterally [1]: poisonous
- absorption by the mammalian digestive tract [2]: do not appear to be absorbed
